Source: article PMC8909834, “An Orally Bioavailable and Highly Efficacious Inhibitor of CDK9/FLT3 for the Treatment of Acute Myeloid Leukemia” (Cancers, 2022)

Columns and labels:
Test in all cases: Kinase Hotspot radiolabel assay
Format in all cases: biochemical
Settings in all cases: read-out: % Residual Activity
AKT2 = target: T1, AKT2 (Homo sapiens, UniProt P31751)
T1 construct: purchased Reaction Biology Corporation (Kinase HotSpot)
Procedure: (§1) Kinase assay. The ADP Glo^TM kinase assay (Promega, Madison, WI, USA) was used to assess the inhibition by CDDD11-8 of CDKs 1, 2, 4, 6, 7, and 9, as well as the mutant isoforms of FLT3. The assays were performed in accord with the manufacturer’s protocol (Promega) as described previously. Briefly, serial three-fold dilutions of CDDD11-8 were prepared in 100% DMSO from a 2 mM stock solution, followed by 1:40 dilution into Milli-Q water. Subsequently, 1 µL of each sample was incubated with 4 µL of kinase mixture containing a particular CDK enzyme and its substrate, standard kinase buffer [3 mM MgCl2, 50 mM HEPES-NaOH pH 7.5, 3 mM MnCl2, 3 µM Na-orthovanadate, 1 mM dithiothreitol (DTT)], kinase dilution buffer (containing 0.25 mg/mL PEG20,000, 50 mM HEPES-NaOH pH 7.5, 1 mM DTT), and ATP at 37 °C for 30 to 40 min. The final reaction mixture contained 0.5% DMSO in all samples, and the applied kinase concentrations were 1, 1, 10, 40, 20, and 50 nM for CDK1, 2, 4, 6, 7, and 9, respectively. The reaction was stopped by adding ADP-Glo reagent and the mixture was incubated further in the dark at room temperature for 40 min. As a final step, kinase detection reagent was added to each mixture and incubated at room temperature for 30 to 60 min. Luminescence was read using an EnVision® multilabel plate reader (PerkinElmer, Beaconsfield, UK), and half-maximum inhibitory concentrations (IC50) were calculated using a non-linear regression model with a variable slope, plotting log (inhibitor concentration) vs. response using the following formula: Ar%=Bottom+Top−Bottom/1+Inhibitor Concentration/IC50^HillSlope where the relative activity Ar (%) is the signal relative to the controls, IC50 is the half maximum concentration, Hillslope is the steepness of the dose-response curve, Top and Bottom are plateaus reflecting the maximum and minimum in responses on the Y-axis (GraphPad Prism version 7, San Diego, CA, USA). Ki values were calculated from the IC50 using the Cheng−Prusoff equation [32]. Extensive specificity assessment was carried out by Reaction Biology Corporation (Malvern, PA, USA) with 369 kinases using 1 µM CDDD11-8 concentration in a Kinase Hotspot radiolabel assay (for experimental details, please see (Reaction Biology https://www.reactionbiology.com/). Subsequently, Ki values were determined for kinases with greater than 90% inhibition.

BRSK2 = target: T2, BRSK2 (Homo sapiens, UniProt Q8IWQ3)
T2 construct: purchased Reaction Biology Corporation (Kinase HotSpot)
Procedure: as §1

CAMK2a = target: T3, CAMK2a (Homo sapiens, UniProt Q9UQM7)
T3 construct: purchased Reaction Biology Corporation (Kinase HotSpot)
Procedure: as §1

CAMK2b = target: T4, CAMK2b (Homo sapiens, UniProt Q13554)
T4 construct: purchased Reaction Biology Corporation (Kinase HotSpot)
Procedure: as §1

CAMK2g = target: T5, CAMK2g (Homo sapiens, UniProt Q13555)
T5 construct: purchased Reaction Biology Corporation (Kinase HotSpot)
Procedure: as §1

CDK7/cyclin H = target: T6, CDK7/cyclin H (Homo sapiens, UniProt P50613)
T6 construct: purchased Reaction Biology Corporation (Kinase HotSpot)
Procedure: as §1

EGFR = target: T7, EGFR (Homo sapiens, UniProt P00533)
T7 construct: purchased Reaction Biology Corporation (Kinase HotSpot)
Procedure: as §1

FGFR3 = target: T8, FGFR3 (Homo sapiens, UniProt P22607)
T8 construct: purchased Reaction Biology Corporation (Kinase HotSpot)
Procedure: as §1

FLT1/VEGFR1 = target: T9, FLT1/VEGFR1 (Homo sapiens, UniProt P17948)
T9 construct: purchased Reaction Biology Corporation (Kinase HotSpot)
Procedure: as §1

HPK1/MAP4K1 = target: T10, HPK1/MAP4K1 (Homo sapiens, UniProt Q92918)
T10 construct: purchased Reaction Biology Corporation (Kinase HotSpot)
Procedure: as §1

IGF1R = target: T11, IGF1R (Homo sapiens, UniProt P08069)
T11 construct: purchased Reaction Biology Corporation (Kinase HotSpot)
Procedure: as §1

MSK2/RPS6KA4 = target: T12, MSK2/RPS6KA4 (Homo sapiens, UniProt O75676)
T12 construct: purchased Reaction Biology Corporation (Kinase HotSpot)
Procedure: as §1

MSSK1/STK23 = target: T13, MSSK1/STK23 (Homo sapiens, UniProt Q9UPE1)
T13 construct: purchased Reaction Biology Corporation (Kinase HotSpot)
Procedure: as §1

P38d/MAPK13 = target: T14, P38d/MAPK13 (Homo sapiens, UniProt O15264)
T14 construct: purchased Reaction Biology Corporation (Kinase HotSpot)
Procedure: as §1

PAK2 = target: T15, PAK2 (Homo sapiens, UniProt Q13177)
T15 construct: purchased Reaction Biology Corporation (Kinase HotSpot)
Procedure: as §1

PASK = target: T16, PASK (Homo sapiens, UniProt Q96RG2)
T16 construct: purchased Reaction Biology Corporation (Kinase HotSpot)
Procedure: as §1

PDGFRa = target: T17, PDGFRa (Homo sapiens, UniProt P16234)
T17 construct: purchased Reaction Biology Corporation (Kinase HotSpot)
Procedure: as §1

PIM1 = target: T18, PIM1 (Homo sapiens, UniProt P11309)
T18 construct: purchased Reaction Biology Corporation (Kinase HotSpot)
Procedure: as §1

PIM3 = target: T19, PIM3 (Homo sapiens, UniProt Q86V86)
T19 construct: purchased Reaction Biology Corporation (Kinase HotSpot)
Procedure: as §1

PRKX = target: T20, PRKX (Homo sapiens, UniProt P51817)
T20 construct: purchased Reaction Biology Corporation (Kinase HotSpot)
Procedure: as §1

SGK2 = target: T21, SGK2 (Homo sapiens, UniProt Q9HBY8)
T21 construct: purchased Reaction Biology Corporation (Kinase HotSpot)
Procedure: as §1

SIK3 = target: T22, SIK3 (Homo sapiens, UniProt Q9Y2K2)
T22 construct: purchased Reaction Biology Corporation (Kinase HotSpot)
Procedure: as §1

STK22D/TSSK1 = target: T23, STK22D/TSSK1 (Homo sapiens, UniProt Q9BXA7)
T23 construct: purchased Reaction Biology Corporation (Kinase HotSpot)
Procedure: as §1

STK32C/YANK3 = target: T24, STK32C/YANK3 (Homo sapiens, UniProt Q86UX6)
T24 construct: purchased Reaction Biology Corporation (Kinase HotSpot)
Procedure: as §1

TESK1 = target: T25, TESK1 (Homo sapiens, UniProt Q15569)
T25 construct: purchased Reaction Biology Corporation (Kinase HotSpot)
Procedure: as §1

WNK2 = target: T26, WNK2 (Homo sapiens, UniProt Q9Y3S1)
T26 construct: purchased Reaction Biology Corporation (Kinase HotSpot)
Procedure: as §1

YSK4/MAP3K19 = target: T27, YSK4/MAP3K19 (Homo sapiens, UniProt Q56UN5)
T27 construct: purchased Reaction Biology Corporation (Kinase HotSpot)
Procedure: as §1

ZAK/MLTK = target: T28, ZAK/MLTK (Homo sapiens, UniProt Q9NYL2)
T28 construct: purchased Reaction Biology Corporation (Kinase HotSpot)
Procedure: as §1

c-Kit = target: T29, c-Kit (Homo sapiens, UniProt P10721)
T29 construct: purchased Reaction Biology Corporation (Kinase HotSpot)
Procedure: as §1

c-MET = target: T30, c-MET (Homo sapiens, UniProt P08581)
T30 construct: purchased Reaction Biology Corporation (Kinase HotSpot)
Procedure: as §1

T11 sequence (P08069 31-1367): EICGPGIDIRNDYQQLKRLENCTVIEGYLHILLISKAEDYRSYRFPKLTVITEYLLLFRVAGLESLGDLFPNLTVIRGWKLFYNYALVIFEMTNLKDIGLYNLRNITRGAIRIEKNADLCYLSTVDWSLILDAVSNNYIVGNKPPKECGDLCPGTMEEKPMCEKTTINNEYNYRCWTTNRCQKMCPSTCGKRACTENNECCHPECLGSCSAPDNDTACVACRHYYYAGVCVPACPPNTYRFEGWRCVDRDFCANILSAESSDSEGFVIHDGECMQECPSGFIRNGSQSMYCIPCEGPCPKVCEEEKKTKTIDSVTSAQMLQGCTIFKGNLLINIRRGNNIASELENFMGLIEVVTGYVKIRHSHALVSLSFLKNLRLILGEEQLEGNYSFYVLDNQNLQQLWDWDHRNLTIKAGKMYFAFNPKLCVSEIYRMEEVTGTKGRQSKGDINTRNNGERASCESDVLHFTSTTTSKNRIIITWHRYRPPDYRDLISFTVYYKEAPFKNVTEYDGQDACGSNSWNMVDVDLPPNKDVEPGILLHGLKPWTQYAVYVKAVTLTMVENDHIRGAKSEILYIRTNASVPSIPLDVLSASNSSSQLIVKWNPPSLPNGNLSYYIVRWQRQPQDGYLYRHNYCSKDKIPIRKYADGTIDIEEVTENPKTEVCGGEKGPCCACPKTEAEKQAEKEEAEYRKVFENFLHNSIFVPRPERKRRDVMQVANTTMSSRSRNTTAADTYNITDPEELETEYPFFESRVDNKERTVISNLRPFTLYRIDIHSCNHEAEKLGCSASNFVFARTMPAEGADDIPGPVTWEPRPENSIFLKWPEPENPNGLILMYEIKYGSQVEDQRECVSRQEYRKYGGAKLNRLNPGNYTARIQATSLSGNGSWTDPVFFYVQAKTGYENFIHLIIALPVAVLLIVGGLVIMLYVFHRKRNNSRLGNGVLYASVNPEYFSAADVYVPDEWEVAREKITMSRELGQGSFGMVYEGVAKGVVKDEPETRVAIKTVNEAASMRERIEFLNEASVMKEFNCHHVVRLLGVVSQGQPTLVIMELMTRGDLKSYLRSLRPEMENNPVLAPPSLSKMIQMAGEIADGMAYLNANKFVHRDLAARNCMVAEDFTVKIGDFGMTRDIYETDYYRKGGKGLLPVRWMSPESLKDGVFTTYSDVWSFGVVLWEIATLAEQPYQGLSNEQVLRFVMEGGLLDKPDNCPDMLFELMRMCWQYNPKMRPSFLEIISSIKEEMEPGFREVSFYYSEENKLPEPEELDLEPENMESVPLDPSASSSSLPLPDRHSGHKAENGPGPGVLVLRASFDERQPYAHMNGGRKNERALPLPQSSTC
T4 sequence (Q13554 whole entry): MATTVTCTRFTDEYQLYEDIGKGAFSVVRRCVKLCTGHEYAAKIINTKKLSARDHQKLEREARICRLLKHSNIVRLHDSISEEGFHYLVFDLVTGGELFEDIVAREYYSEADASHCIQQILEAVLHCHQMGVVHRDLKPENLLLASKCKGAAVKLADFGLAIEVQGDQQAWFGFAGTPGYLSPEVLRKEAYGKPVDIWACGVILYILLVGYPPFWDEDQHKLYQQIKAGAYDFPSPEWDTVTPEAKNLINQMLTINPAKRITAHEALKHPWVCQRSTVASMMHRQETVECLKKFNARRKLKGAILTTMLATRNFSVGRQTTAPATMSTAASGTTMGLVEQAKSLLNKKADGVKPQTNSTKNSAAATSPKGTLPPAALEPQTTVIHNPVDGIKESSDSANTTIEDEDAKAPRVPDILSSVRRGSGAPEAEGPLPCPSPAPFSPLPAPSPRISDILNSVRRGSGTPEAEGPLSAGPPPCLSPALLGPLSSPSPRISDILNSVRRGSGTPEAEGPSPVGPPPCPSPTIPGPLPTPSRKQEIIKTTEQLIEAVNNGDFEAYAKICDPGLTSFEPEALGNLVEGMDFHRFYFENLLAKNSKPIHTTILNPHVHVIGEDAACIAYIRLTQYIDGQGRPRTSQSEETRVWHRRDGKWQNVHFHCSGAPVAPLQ
T13 sequence (Q9UPE1 whole entry): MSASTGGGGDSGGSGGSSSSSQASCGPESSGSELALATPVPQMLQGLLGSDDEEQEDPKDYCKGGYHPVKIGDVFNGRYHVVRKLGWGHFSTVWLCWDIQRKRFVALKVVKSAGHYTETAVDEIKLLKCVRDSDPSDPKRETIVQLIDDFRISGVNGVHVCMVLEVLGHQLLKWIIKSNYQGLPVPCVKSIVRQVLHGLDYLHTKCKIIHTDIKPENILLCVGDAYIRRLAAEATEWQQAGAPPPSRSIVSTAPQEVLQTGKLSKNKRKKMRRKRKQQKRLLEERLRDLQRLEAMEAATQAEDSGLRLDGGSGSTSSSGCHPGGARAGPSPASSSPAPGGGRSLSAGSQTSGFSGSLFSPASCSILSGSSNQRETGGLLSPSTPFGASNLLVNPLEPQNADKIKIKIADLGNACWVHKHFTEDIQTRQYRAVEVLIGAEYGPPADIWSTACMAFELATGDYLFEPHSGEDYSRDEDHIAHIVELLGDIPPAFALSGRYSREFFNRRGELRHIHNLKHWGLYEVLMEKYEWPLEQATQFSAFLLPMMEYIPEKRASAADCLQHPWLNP
T29 sequence (P10721 26-976): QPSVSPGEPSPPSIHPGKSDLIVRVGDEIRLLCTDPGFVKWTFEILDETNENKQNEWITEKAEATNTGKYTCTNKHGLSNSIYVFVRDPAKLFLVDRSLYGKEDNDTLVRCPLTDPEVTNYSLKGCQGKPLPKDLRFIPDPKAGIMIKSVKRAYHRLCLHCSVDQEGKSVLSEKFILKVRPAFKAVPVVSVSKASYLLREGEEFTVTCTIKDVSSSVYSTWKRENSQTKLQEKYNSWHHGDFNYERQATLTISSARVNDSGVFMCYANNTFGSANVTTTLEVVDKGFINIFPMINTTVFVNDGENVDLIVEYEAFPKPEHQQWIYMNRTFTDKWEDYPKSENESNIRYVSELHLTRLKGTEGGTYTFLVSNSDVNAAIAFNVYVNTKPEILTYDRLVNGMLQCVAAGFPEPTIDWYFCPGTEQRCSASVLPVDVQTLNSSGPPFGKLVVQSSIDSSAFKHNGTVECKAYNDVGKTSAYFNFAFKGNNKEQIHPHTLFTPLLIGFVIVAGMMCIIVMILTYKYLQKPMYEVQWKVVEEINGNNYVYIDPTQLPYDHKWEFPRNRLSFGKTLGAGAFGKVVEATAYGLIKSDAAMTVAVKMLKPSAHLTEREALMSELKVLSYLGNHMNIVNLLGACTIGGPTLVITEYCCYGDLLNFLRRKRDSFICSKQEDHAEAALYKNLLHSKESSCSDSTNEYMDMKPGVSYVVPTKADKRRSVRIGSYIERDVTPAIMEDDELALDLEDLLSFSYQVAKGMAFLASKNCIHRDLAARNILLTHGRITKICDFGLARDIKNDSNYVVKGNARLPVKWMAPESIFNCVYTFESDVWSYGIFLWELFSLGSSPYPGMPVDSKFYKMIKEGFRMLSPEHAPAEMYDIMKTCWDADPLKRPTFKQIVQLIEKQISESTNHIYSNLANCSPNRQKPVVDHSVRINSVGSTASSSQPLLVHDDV
T21 sequence (Q9HBY8 whole entry): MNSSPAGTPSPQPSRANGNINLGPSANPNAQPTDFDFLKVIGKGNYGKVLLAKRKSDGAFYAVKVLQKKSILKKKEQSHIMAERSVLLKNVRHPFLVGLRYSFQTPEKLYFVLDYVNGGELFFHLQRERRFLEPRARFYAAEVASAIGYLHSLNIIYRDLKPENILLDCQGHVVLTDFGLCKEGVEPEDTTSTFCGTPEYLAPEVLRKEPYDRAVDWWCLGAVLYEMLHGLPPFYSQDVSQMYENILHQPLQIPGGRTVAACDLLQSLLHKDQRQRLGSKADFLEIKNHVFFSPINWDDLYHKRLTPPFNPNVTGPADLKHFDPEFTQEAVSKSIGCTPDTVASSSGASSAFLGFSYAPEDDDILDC
T3 sequence (Q9UQM7 whole entry): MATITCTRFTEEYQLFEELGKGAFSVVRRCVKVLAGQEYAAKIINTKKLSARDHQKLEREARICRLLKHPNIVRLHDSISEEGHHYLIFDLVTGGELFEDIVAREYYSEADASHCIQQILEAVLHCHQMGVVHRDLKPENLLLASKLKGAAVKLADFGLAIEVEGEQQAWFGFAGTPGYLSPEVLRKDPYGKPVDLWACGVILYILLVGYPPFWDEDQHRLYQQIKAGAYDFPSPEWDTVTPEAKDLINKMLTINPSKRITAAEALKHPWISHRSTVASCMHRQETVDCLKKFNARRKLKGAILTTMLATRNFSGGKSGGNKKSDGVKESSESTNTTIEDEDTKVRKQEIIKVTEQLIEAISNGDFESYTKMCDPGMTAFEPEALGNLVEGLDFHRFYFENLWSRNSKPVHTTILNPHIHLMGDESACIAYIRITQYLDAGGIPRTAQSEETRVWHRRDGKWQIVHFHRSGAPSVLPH
T24 sequence (Q86UX6 whole entry): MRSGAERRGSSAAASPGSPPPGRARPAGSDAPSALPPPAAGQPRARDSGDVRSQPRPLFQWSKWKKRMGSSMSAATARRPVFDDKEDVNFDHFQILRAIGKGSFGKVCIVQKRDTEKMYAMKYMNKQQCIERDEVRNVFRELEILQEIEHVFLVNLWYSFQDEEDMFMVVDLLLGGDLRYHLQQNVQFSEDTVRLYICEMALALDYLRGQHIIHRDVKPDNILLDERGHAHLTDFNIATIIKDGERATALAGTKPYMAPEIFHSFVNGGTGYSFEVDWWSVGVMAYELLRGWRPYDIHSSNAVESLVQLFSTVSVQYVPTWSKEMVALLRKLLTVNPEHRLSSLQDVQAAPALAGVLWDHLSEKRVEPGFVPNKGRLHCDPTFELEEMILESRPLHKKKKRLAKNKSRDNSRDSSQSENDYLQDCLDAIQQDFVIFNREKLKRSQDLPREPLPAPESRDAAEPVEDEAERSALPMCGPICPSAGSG

## Cc1cnc(N[C@H]2CC[C@H](N)CC2)nc1-c1cnc2ccc(-c3ccccc3)cn12 [CDDD11-8]
AKT2
  remaining activity at 1 µM: 116%
BRSK2
  remaining activity at 1 µM: 96.5%
CAMK2a
  remaining activity at 1 µM: 20.3%
CAMK2b
  remaining activity at 1 µM: 23.5%
CAMK2g
  remaining activity at 1 µM: 96.8%
CDK7/cyclin H
  remaining activity at 1 µM: 63.7%
EGFR
  remaining activity at 1 µM: 82.2%
FGFR3
  remaining activity at 1 µM: 92.8%
FLT1/VEGFR1
  remaining activity at 1 µM: 53.4%
HPK1/MAP4K1
  remaining activity at 1 µM: 35.4%
IGF1R
  remaining activity at 1 µM: 79%
MSK2/RPS6KA4
  remaining activity at 1 µM: 97.4%
MSSK1/STK23
  remaining activity at 1 µM: 90.8%
P38d/MAPK13
  remaining activity at 1 µM: 99%
PAK2
  remaining activity at 1 µM: 96.7%
PASK
  remaining activity at 1 µM: 43.1%
PDGFRa
  remaining activity at 1 µM: 49.3%
PIM1
  remaining activity at 1 µM: 65%
PIM3
  remaining activity at 1 µM: 72.6%
PRKX
  remaining activity at 1 µM: 77.4%
SGK2
  remaining activity at 1 µM: 113%
SIK3
  remaining activity at 1 µM: 59.9%
STK22D/TSSK1
  remaining activity at 1 µM: 93.2%
STK32C/YANK3
  remaining activity at 1 µM: 91.1%
TESK1
  remaining activity at 1 µM: 113%
WNK2
  remaining activity at 1 µM: 94.5%
YSK4/MAP3K19
  remaining activity at 1 µM: 63.5%
ZAK/MLTK
  remaining activity at 1 µM: 83.3%
c-Kit
  remaining activity at 1 µM: 97.5%
c-MET
  remaining activity at 1 µM: 103%
